The values that follow come from patent US8729053B2, “Nuclear factor kappa B pathway inhibitor composition and use of same” (The United States of America, as represented by the …, priority 2008, dated 2014).

The subject of one assay is AP-1. The experiment in a line: AP-1 luciferase reporter assay in HEK293 cells. As to conditions: HEK293, TPA 10 ng/ml 18 hours. The format is cell-based. The protocol:
(§1) All expression plasmids were transiently transfected into HEK293 cells in a 96-well plate (0.1 μg/well) by using Effectene transfection reagent (Qiagen, Valencia, Calif.) according to the manufacturer's manual. HEK293 cells were maintained in Dulbecco's modified Eagle medium (Sigma, St. Louis, Mo.) supplemented with 10% fetal bovine serum (Atlanta Biologicals, Lawrenceville, Ga.) and incubated at 37° C. in a 5% CO2 incubator. After 24 hrs incubation, the medium was changed to DMEM with 0.2% FBS, and the transfectants were exposed to various concentrations of compound I and TPA (10 ng/ml). Cells were lysed with passive lysis buffer and the luciferase assay was performed using the Firefly-Luciferase reporter assay system (Promega, Madison, Wis.) and MLX Luminometer (Dynex Technology, Chantilly, Va.).
Three different luciferase reporter genes, AP-1 reporter containing four times TRE consensus originated from GCN4 and SRE reporter purchased from Stratagene (La Jolla, Calif.) respectively are as described previously (Suzukawa et al., Environ. Health Perspect., 2002, 110, 865-70). NFκB reporter is driven by five times NFκB responsive element inserted into Cis-reporter backbone (Stratagene, La Jolla, Calif.). Others include mouse COX-2 promoter region from −203 to +70 relative to the transcription site inserted into pTIS10L vector (Kim and Fischer, J. Biol. Chem., 1998, 273, 27686-94), human uPAR promoter region from −141 to +47 relative to transcription start site in pGL3 vector (Wang et al., Eur. J. Biochem., 2000, 267, 3248-54), and human VEGF promoter sequence from −2274 to +379 inserted into the pGL2 vector (Ding et al., J. Biol. Chem., 2006, 281, 9093-100). […]
(In a reporter assay the amount or activity of a reporter protein is the signal.)

Another assay addresses T1, IKKβ (Homo sapiens, UniProt O14920).
T1 construct: purchased Calbiochem
T1 sequence (O14920 1-756): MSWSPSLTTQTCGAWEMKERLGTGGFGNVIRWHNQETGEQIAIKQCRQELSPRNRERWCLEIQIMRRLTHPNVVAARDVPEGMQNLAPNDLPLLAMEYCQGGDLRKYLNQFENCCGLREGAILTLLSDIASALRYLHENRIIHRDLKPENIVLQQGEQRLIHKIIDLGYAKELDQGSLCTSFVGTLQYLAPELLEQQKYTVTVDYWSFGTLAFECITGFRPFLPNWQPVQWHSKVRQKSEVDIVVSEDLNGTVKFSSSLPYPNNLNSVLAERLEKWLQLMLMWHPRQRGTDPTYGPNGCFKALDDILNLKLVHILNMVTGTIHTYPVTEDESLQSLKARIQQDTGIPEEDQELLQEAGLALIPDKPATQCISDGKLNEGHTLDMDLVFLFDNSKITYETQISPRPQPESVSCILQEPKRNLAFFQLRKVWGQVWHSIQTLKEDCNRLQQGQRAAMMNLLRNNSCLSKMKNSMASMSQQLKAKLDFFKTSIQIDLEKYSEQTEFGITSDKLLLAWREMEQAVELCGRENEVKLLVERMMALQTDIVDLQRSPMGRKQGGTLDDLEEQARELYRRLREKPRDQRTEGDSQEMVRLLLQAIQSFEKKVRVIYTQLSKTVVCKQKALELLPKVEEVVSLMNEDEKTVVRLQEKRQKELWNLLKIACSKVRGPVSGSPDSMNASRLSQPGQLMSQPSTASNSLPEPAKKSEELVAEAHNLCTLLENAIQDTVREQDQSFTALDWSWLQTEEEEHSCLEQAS
Put plainly: K-LISA IKKβ Inhibitor Screening Kit in vitro assay. As to conditions: 0.1 to 100 μM, incubated with ATP. Format: biochemical. As to the method: In an attempt to determine whether compound I interferes with ATP binding to the catalytic site, the activity of compound I was measured with fully activated, phosphorylated IKKα or IKKβ. […] However, whether this compound interacts outside of the ATP binding pocket of IKK as an ATP non-competitive inhibitor similar to BMS-345541 is unknown. […] Luciferase activities with TPA induction alone were set at 100% and the relative activities with TPA in the presence of compounds are shown.

The test system of the next assay is NFκB. The experiment in a line: NFκB luciferase reporter assay in HEK293 cells. The format is cell-based. As to conditions: at 1 to 8 μM, TPA 10 ng/ml 18 hours. As to the method:
as §1
Three different luciferase reporter genes, AP-1 reporter containing four times TRE consensus originated from GCN4 and SRE reporter purchased from Stratagene (La Jolla, Calif.) respectively are as described previously (Suzukawa et al., Environ. Health Perspect., 2002, 110, 865-70). NFκB reporter is driven by five times NFκB responsive element inserted into Cis-reporter backbone (Stratagene, La Jolla, Calif.). Others include mouse COX-2 promoter region from −203 to +70 relative to the transcription site inserted into pTIS10L vector (Kim and Fischer, J. Biol. Chem., 1998, 273, 27686-94), human uPAR promoter region from −141 to +47 relative to transcription start site in pGL3 vector (Wang et al., Eur. J. Biochem., 2000, 267, 3248-54), and human VEGF promoter sequence from −2274 to +379 inserted into the pGL2 vector (Ding et al., J. Biol. Chem., 2006, 281, 9093-100).
To evaluate whether the compound I biological activity can imitate TAM67 specificity, three different transcriptional promoter reporters were used, AP-1, NFκB, and SRE (Serum response element) in luciferase reporter assays (FIG. 1A: The transfected cells were pre-treated with varied concentrations of compound I or DMSO for 1 hour before 18 hours stimulation by TPA (10 ng/ml) or DMSO as vehicle. An asterisk (*) indicates a separate experiment with NFκB dependent luciferase only. Assays were performed with two independent experiments each in quadruplicate.). All three activities were induced by TPA but only induction of AP-I and NFκB were inhibited by TAM67. The SRE reporter was used as a specificity control and indicator of cell proliferation. TPA-induced SRE activity was not repressed by TAM67 when coexpressed with the SRE-Luc reporter in HEK293 cells. The same concentration (10 ng/ml, 16.2 nM) and incubation time (18 hrs) were used for TPA induction as previously used for the high throughput screen (HTS) (Ruocco et al., J. Biomol. Screen., 2007, 12, 133-9) along with 1 h pretreatment of compound I. The screening results had tested concentrations as high as 40 μM compound I with cell numbers showing 95.5+/−6.2% of DMSO control (ave+/− sd, n=3) by the XTT assay in HEK293T cells.

For assay [1], the system named is SRE (Serum response element). The experiment in a line: SRE luciferase reporter assay in HEK293 cells. The format is cell-based. As to conditions: HEK293, TPA 10 ng/ml 18 hours. As to the method:
as §1
Three different luciferase reporter genes, AP-1 reporter containing four times TRE consensus originated from GCN4 and SRE reporter purchased from Stratagene (La Jolla, Calif.) respectively are as described previously (Suzukawa et al., Environ. Health Perspect., 2002, 110, 865-70). NFκB reporter is driven by five times NFκB responsive element inserted into Cis-reporter backbone (Stratagene, La Jolla, Calif.). […]

As to `Cc1ccc2nc(NCCN)c3ncc(C)n3c2c1` [BMS-345541, reference compound], the “Inhibition of TPA-induced AP-1 luciferase activity” value in the assay on AP-1 is “without inhibition”. For the same molecule, on IKKβ, the “Inhibition of phosphorylation of IκBα peptide substrate catalyzed by IKKβ” value is given as “no inhibition”. Also, in the assay on NFκB, the “Inhibition of NFκB-Luciferase” value is recorded as “dose-dependent inhibition”.
As to `O=C(O)c1cc(/N=N/c2ccc(S(=O)(=O)Nc3ccccn3)cc2)ccc1O` [sulfasalazine, reference compound], the “TPA-induced SRE luciferase activity” value in assay [1] was “no sparing”.
